According to US12384800B2, “Antitumoral compounds” (priority 2017, dated 2025):

Assays:
[1] = MTMD (Maximum Tolerated Multiple Dose) determination, iv weekly x 3; format: in vivo; settings: mice; iv/Q7d × 3
Summary of the method: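 Female CD-1 or athymic nude mice received compound in formulation iv at different concentrations, once for MTD or weekly for three consecutive weeks for MTMD, with vehicle groups included. Clinical signs of systemic toxicity, body weight and mortality were followed up to 14 days after administration.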

[2] = tested on: HT1080 tumors; settings: Day 0
Experimental: Female athymic nu/nu mice (Harlan Laboratories Models, S.L. Barcelona, Spain or Envigo, Spain) were utilized for all experiments. Animal were housed in individually ventilated cages Sealsafe® Plus, Techniplast S.P.A.), up to ten per cage on a 12-hour light-dark cycle at 21-23° C. and 40-60% humidity. […] Animals were acclimated for at least 5 days prior to tumor implantation with a tumor cell suspension.
HT1080 cells were maintained in vitro at 37° C. with 5% CO2 in Minimum Essential Medium Eagle (MEME) (Sigma-Aldrich, Co). Each animal was orthotopically implanted into gastroecnemius muscle by an intramuscular injection using a 26G needle and a 1 cc syringe at 4-6 weeks of age, with 10×10^6 HT1080 cells, suspended in serum free medium, without antibiotics.
Treatment tolerability was assessed by monitoring body weight evolution, clinical signs of systemic toxicity, as well as evidences of local damage in the injection site.
In xenograft studies with HT1080 cell line: • Total diameter (tumor+leg) measurements were determined by using digital caliper (Fowler Sylvac, S235PAT).
Treatments producing >20% lethality and/or 20% net body weight loss were considered toxic.

COc1c(C)cc2c(c1O)[C@@H]1[C@@H]3[C@@H]4SC[C@]5(NCCc6c5oc5ccccc65)C(=O)OC[C@@H](c5c6c(c(C)c(OC(C)=O)c54)OCO6)N3[C@@H](O)[C@H](C2)N1C [Compound 32]
MTMD [1]: 0.5 mg/kg | Total diameter (tumor + leg) [2]: 7.5 mm
